We go through five substances from US20140205583A1, “USE OF PLP WITH PEG-rMETase IN VIVO FOR ENHANCED EFFICACY” (AntiCancer, Inc., priority 2003, published 2014).

One data set has as its system cancer cell lines. The note with it: wide variety of cancer cell lines, in vitro; cited from earlier work.
For another data set, the system named is plasma methionine. As to the kind of experiment: Plasma methionine depletion following intravenous injection of naked and PEGylated rMETase, with or without PLP pump. In kind it is in vivo, Athymic nude (nu/nu) mice. Conditions: for Max. Period of MET depletion below 5 μM, PLP+: with PLP supplementation from s.c. mini-osmotic pump; for Period of plasma methionine depletion below 5 μM relative to naked rMETase: fold longer than naked rMETase; for PLP dependence (ratio of plasma methionine PLP− versus PLP+): ratios at various time points, FIG. 8. The procedure:
The methionine level in the plasma was measured by pre-column derivitization, followed by HPLC separation (Jones, B. N., and Gilligan, J. P., J. Chromatogr. (1983) 266:471-482). Briefly, 10 μl of plasma sample or methionine standard was precipitated with 30 μl of acetonitrile, followed by centrifugation at 10,000 rpm for 5 minutes. 10 μl of the supernatant was mixed with 5 μl of a fluoraldehyde derivative reagent, o-phthaldialdehyde, for 1 minute at room temperature, followed by addition of 150 μl of 0.1 M sodium acetate, pH 7.0. 20 μl of the reaction mixture was loaded on a reversed-phase Supelcosil™ LC-18DB column (25 cm×[…], particle size 5 μm (Supelco, Bellefonte, Pa., USA). The amino acid derivatives were separated by using a gradient elution of 40-60% solution B (Methanol) in solution A (tetrahydrofuran/methanol/0.1M sodium acetate. pH 7.2; 5/95/900) at a flow rate of 1.5 ml/minute. A fluorescence spectrophotometer was used for detection: excitation at 350 nm and emission at 450 nm. The plasma methionine was identified by the retention time of a methionine standard solution and quantitated according to a methionine standard curve.
(§1) Athymic nude (nu/nu) mice aged 4 weeks (20-25 g) were used for the study with 4 mice per group. Osmotic mini-pumps filled with 250 μl PLP (0.5 g/ml) were implanted subcutaneously. Twenty-four hours after pump implantation, 80 units of native rMETase or PEG-rMETase in 0.5 ml PBS, pH 7.4, were injected via the tail vein in mice with or without PLP pumps. 400 μl of blood was collected from the retroorbital plexus of each animal using heparinized capillary tubes. Blood was collected prior to injection, and 1, 2, 4, 8, 24, 48, 72, 96 and 120 hours post injection. The plasma was separated and stored in small aliquots at −80° C. The plasma enzyme activity, methionine concentration and PLP level in the plasma, collected at the different time points, were measured as described above.
(§2) 80 U of naked or PEGylated rMETase were injected i.v. in each mouse with or without PLP supplementation. Blood samples were collected at different time points and measured for enzyme activity and methionine concentration as described in the Materials and Methods. Plasma half-life was calculated from the plasma enzyme concentration-time profiles (FIG. 4). Maximum period of methionine depletion below 5 μM is calculated from the plasma methionine levels in FIGS. 5 and 7.
The mice were injected i.v. with 80 U of naked or the indicated PEGylated rMETase. Blood samples were collected at different time points and measured for plasma methionine concentration as described above.
In these experiments, 80 U of naked or PEGylated rMETase was injected intravenously in animals with and without PLP supplementation from implanted mini-osmotic pumps. Blood samples were taken at different time points and measured for plasma methionine concentration. […] The plasma methionine levels depleted by the three PEGylated rMETase conjugates were maintained below 2 μM for 48 hours and below 4 μM for 72 hours in case of PEG/rMETase 120 with PLP supplementation (Table 3). At 120 hours after injection of PEG/rMETase, the plasma methionine level depleted by PEG/rMETase 30, PEG/rMETase 60 and PEG/rMETase 120 still remained at 40%, 57% and 22% of normal baseline, respectively (Table 3).

Data set [1] is described as follows: Pharmacokinetics: plasma enzyme activity following intravenous injection of naked and PEGylated rMETase in mice. In kind it is in vivo, Athymic nude (nu/nu) mice. Conditions: for Plasma half-life in mice: 80 U i.v. per mouse, calculated from plasma enzyme activity-time profiles; for Plasma enzyme activity detectable until: 80 units per mouse i.v. The procedure: rMETase activity was determined from α-ketobutyrate produced from L-methionine according to the method of Tanaka, H., et al., Biochemistry (1977) 16:100-106, with slight modification. 0.5 ml of sample diluted in 100 mM potassium phosphate buffer pH 8.0, containing 0.01% DTT, 1 mM EDTA Nae, 10 μM PLP and 0.05% Tween 80, was mixed with 0.5 ml of substrate solution containing 100 mM potassium phosphate buffer, pH 8.0, containing 25 mM L-methionine and 10 μM PLP in a glass test tube. The reaction mixture was vortexed immediately and incubated at 37° C. without shaking for precisely 10 minutes. The reaction was stopped by adding 0.5 ml of 50% TCA. The suspension was centrifuged at 13,000 rpm for 2 minutes. The supernatant (0.5 ml) was collected in a glass tube containing 1 ml 1 M acetate buffer, pH 5.0. Then, 0.4 ml MBTH solution containing 0.1% 3-methyl-2-benzothiazolinonehydrazone dihydrochloride monohydrate (Wako Pure Chemical, Osaka, Japan) was added to the tube, mixed well and incubated at 50° C. for 30 minutes. The absorbance of the reaction mixture was measured at 320 nm. The assay was carried out in triplicate. ΔE was calculated by subtracting the average absorbance of blanks from the average absorbance of the reaction mixture. The enzyme activity was calculated by the following equation: Activity (U/ml)=0.548 (1.07+2.2ΔE) ΔE. One unit of enzyme is defined as the amount of enzyme which produced 1 μM of α-ketobutyrate per minute at an infinite concentration of L-methionine.
as §1
The mice were injected intravenously with 80 U naked or the indicated PEGylated rMETase. Blood samples were collected at different time points and measured for plasma enzyme activity as described above.
as §2

Data set [2] deals with plasma anti-rMETase specific antibody. As to the kind of experiment: Plasma anti-rMETase antibody titer by sandwich ELISA after immunization with FCA. In kind it is in vivo, BALB/c male mice. Conditions: mice immunized i.p. with 200 μg in FCA; figures in parentheses = numbers of mice. The procedure: BALB/c male mice were grouped randomly at 5 per group. Each mouse received three i.p. injections of 0.2 ml (200 μg) naked or PEG-rMETase emulsified in Freund's complete adjuvant (FCA) at weekly intervals. Two weeks following the last injection, a booster injection of the rMETase or PEG-rMETase was given to each mouse. Blood samples were collected two weeks after the booster injection, and plasma was separated and stored at −80° C.
Plasma anti-rMETase antibody was measured using a sandwich ELISA technique. 100 μl 200 μg/ml rMETase in 0.1 M carbonate coating buffer, pH 9.5, was added to each well of a 96-well microplate and incubated at 4° C. overnight. The plate was washed three times with PBS washing buffer, pH 7.4, containing 0.05% Tween-20, and blocked for 2 hours at room temperature with 200 μl of PBS assay buffer, pH 7.4, containing 10% FBS. After washing three times, 100 μl of 10-fold serial dilutions of the plasma samples in PBS assay buffer were added to appropriate wells and incubated for 2 hours at room temperature, followed by washing. 100 μl optimally diluted goat anti-mouse IgG and IgM subtypes conjugated with horseradish peroxidase (SIGMA, St. Louis, Mo., USA) were added to each well. The plate was incubated for 1 hour at room temperature and washed three times. 100 μl substrate solution containing O-phenylenediamine dihydrochloride (OPD) and hydrogen peroxide (SIGMA, St. Louis, Mo., USA) were added to each well, followed by 30 min incubation at room temperature. 50 μl 2N sulfuric acid were added to each well to stop the color reaction. The absorbance of each well was measured at 492 nm. The antibody titer was determined as the highest plasma dilution at which the extinction at 492 nm generated in the well of the immune plasma exceeded twice the extinction generated in those wells with negative control plasma.
IgG and IgM anti-rMETase antibody titers of the plasma of the mice immunized with naked or indicated PEGylated rMETase in the presence of FCA were determined using ELISA as described in the Materials and Methods. […]

For data set [3] the following is noted: literature comparison; cited from earlier work.
Setting [4] is: 80 U i.v., without PLP supplementation.
[5] abbreviates: 80 U i.v., with PLP supplementation.

Turning to “L-methionine α-deamino-γ-mercaptomethane lyase [Naked rMETase]”, the “IC50 in cancer cell lines compared to non-neoplastic cells” value in the data set on cancer cell lines is “several-fold less”. The “Plasma methionine level reached within 1 hour” value with plasma methionine (80 U i.v., baseline 40 μM, without PLP supplementation) is given as “less than 5 μM”. Also, the “Max. Period of MET depletion below 5 μM, PLP+” value (from here on “Max. Period … PLP+”) in the data set with plasma methionine (80 U i.v.) was found to be 4 h. Further, in the data set with plasma methionine (setting [4]), the “Max. Period of MET depletion below 5 μM, PLP−” value (“Max. Period … PLP−” for short) came to 4 h.
As for “PEG/rMETase 30: rMETase conjugated with MEGC-PEG-5000 at molar ratio PEG/rMETase of 30/1”, the “Plasma half-life in mice” value in data set [1] was 12 h. Also, in data set [2], the “Plasma anti-rMETase specific IgM antibody titer” value is given as 10^−3 (5). The “Max. Period … PLP+” value with plasma methionine (80 U i.v.) turned out to be 48 h. The “Plasma methionine level at 120 hours after injection, of normal baseline” value (“Plasma methionine level at 120 hours” for short) in the data set with plasma methionine (setting [5]) came to 40%. Moreover, in the data set with plasma methionine (setting [4]), the “Max. Period … PLP−” value was 8 h and the “Period of plasma methionine depletion below 5 μM relative to naked rMETase” value amounted to 2 fold.
As for “PEG/rMETase 60: rMETase conjugated with MEGC-PEG-5000 at molar ratio PEG/rMETase of 60/1”, in data set [1], the “Plasma half-life in mice” value was 18 h and the “Plasma enzyme activity detectable until” value turned out to be 72 h. In addition, in data set [2], the “Plasma anti-rMETase specific IgM antibody titer” value is 10^−3 (5). In addition, in the data set on plasma methionine (80 U i.v.), the “Max. Period … PLP+” value came to 48 h. For the same substance, the “Plasma methionine level at 120 hours” value with plasma methionine (setting [5]) was 57%. Also, in the data set on plasma methionine (setting [4]), the “Max. Period … PLP−” value worked out at 24 h and the “Period of plasma methionine depletion below 5 μM relative to naked rMETase” value is 6 fold. In the data set on plasma methionine, the “PLP dependence (ratio of plasma methionine PLP− versus PLP+)” value is “lesser PLP dependence than PEG/rMETase 30”.
Regarding “PEG/rMETase 120: rMETase conjugated with MEGC-PEG-5000 at molar ratio PEG/rMETase of 120/1”, in data set [1], the “Plasma half-life in mice” value was 38 h and the “Plasma enzyme activity detectable until” value was found to be 72 h. In addition, in data set [2], the “Plasma anti-rMETase specific IgM antibody titer” value is listed as 10^−3 (5). Moreover, in the data set on plasma methionine (setting [5]), the “Plasma methionine level maintained for 72 hours” value was “below 4 μM” and the “Plasma methionine level at 120 hours” value came to 22%. Besides, the “Max. Period … PLP+” value with plasma methionine (80 U i.v.) was found to be 72 h. Also, in the data set on plasma methionine (setting [4]), the “Max. Period … PLP−” value was 48 h and the “Period of plasma methionine depletion below 5 μM relative to naked rMETase” value came out at 12 fold. For the same substance, the “PLP dependence (ratio of plasma methionine PLP− versus PLP+)” value in the data set with plasma methionine is given as “lesser PLP dependence than PEG/rMETase 30”.
On to “PEGylated rMETase with M-SPA-PEG: Literature rMETase PEGylated with M-SPA-PEG, comparison for half-life”, for which the Plasma half-life in data set [3] is 0.667 h.
